Results from US6365591B1, “Isoxazolecarboxamide derivatives” (Recordati, S.A., Chemical and Pharmacueticals Company, priority 1999, dated 2002).
Like-named read-outs stand apart in the source and are kept apart here.

Columns and labels:
α1L adrenoceptor = biological target: T1, α1L adrenoceptor (Oryctolagus cuniculus, UniProt O02824); test: Functional antagonism of noradrenaline-induced contractions of rabbit aorta pretreated with chloroethylclonidine; format: biochemical
T1 sequence (O02824 1-466): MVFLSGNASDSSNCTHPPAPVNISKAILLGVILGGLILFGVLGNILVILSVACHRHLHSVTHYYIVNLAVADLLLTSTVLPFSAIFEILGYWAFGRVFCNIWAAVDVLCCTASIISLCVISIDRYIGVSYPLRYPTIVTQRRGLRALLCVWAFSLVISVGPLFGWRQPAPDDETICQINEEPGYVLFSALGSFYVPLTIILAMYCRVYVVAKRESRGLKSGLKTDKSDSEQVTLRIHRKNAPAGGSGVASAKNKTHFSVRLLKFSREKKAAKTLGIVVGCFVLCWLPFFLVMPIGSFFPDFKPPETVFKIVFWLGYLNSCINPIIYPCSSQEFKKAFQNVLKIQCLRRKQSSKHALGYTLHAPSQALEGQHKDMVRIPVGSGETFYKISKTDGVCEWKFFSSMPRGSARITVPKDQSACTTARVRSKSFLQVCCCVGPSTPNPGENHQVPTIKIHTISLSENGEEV
Protocol: Adult male New Zealand rabbits were sacrificed by cervical dislocation. The aorta was removed, placed in Krebs-Henseleit buffer and dissected free of adhering tissue. […] Desmethylimipramine (0.1 μM) and corticosterone (1 μM) to block neuronal and extraneuronal uptake of NA, (±)-propranol (1 μM) to block β adrenoceptors and yohimbine (0.1 μM) to block α2 adrenoceptors were added to the buffer.
Each antagonist concentration was tested using 2-3 aortic rings from different rabbits.
The logarithm of these dose ratio −1 was plotted against the logarithm of the compound concentrations (Schild plot) to evaluate the affinity constant Kb.

[1] = tested on: recombinant α1a-adrenoceptor; details: literature statement (Leonardi et al. 1997); cited from earlier work
[2] = tested on: prostatic urethral pressure (noradrenaline-induced); details: cited from earlier work
[3] = tested on: prostatic urethral pressure (hypogastric-nerve stimulation); details: anaesthetised dogs, i.v.; data from Leonardi et al. 1997; cited from earlier work
diastolic blood pressure = details: cited from earlier work; for DBP ED25: dose inducing a 25% decrease in diastolic blood pressure: anaesthetised dogs, i.v., data from Leonardi et al. 1997
[4] = dog model, literature (Leonardi et al. 1997)

COc1ccccc1N1CCN(CCCNC(=O)c2cccc3c(=O)c(C)c(-c4ccccc4)oc23)CC1 [Compound A]
Functional affinity for the α1L adrenoceptor subtype, pKb (α1L adrenoceptor): 8.91 | affinity for the α1A adrenoceptor [1]: good affinity | UP ID50 NA: dose inhibiting by 50% the urethral contractions induced by noradrenaline ([2]; anaesthetised dogs, i.v., data from Leonardi et al. 1997): 2.4 µg/kg | inhibition of contractility of the prostatic urethra [2, 4]: selectively inhibit contractility of the prostatic urethra | UP ID50 HYP: dose inhibiting by 50% the urethral contractions induced by hypogastric-nerve stimulation [3]: 6.7 µg/kg | DBP ED25: dose inducing a 25% decrease in diastolic blood pressure (diastolic blood pressure; first of two DBP values (the one that gives R1, NA)): 243 µg/kg | DBP ED25: dose inducing a 25% decrease in diastolic blood pressure (diastolic blood pressure; second of two DBP values (the one that gives R2, HYP)): 177 µg/kg | effects on blood pressure (diastolic blood pressure; [4]): without substantial effects on blood pressure
